Here are results for two molecules from article PMC13114712, “The Influence of TDP1 Inhibitor Usnic Acid Derivative OL9-116 on the Effects of Topotecan in Human Cells” (Current Issues in Molecular Biology, 2026).

For series [1], the target named is T1, Tyrosyl-DNA phosphodiesterase 1 (TDP1) (Homo sapiens, UniProt Q9NUW8).
T1 construct: TDP1 wild type (full-length, recombinant from E. coli, pLate31-TDP1)
Nature of the series: real-time fluorimetric assay with FAM/BHQ1 oligonucleotide; V(S) kinetics; EMSA and fluorescence anisotropy show no DNA competition. It is filed as biochemical.

The next series has as its target T2, Δ148TDP1 (Homo sapiens, UniProt Q9NUW8).
T2 construct: gene TDP1; Δ148TDP1, truncated form lacking the first 148 N-terminal amino acid residues (recombinant from E. coli)
Nature of the series: real-time fluorimetric assay with FAM/BHQ1 oligonucleotide. It is filed as biochemical.

The next series addresses TDP1 (wild type) (Homo sapiens, UniProt Q9NUW8 1-608). Nature of the series: EMSA; no inhibitor; 0.5 uM TDP1, 0.1 uM DNA; two complexes (1:1 and 2:1); 50 mM Tris-HCl pH 8.0, 50 mM NaCl, 7 mM beta-mercaptoethanol; EMSA 10 min at 4 C, 5% PAGE in 0.3x TBE; anisotropy temperature not stated. To be noted: protein: recombinant; label: 5'-(5,6)-FAM; single strand.

T2 sequence (Q9NUW8 149-608, stated change not applied): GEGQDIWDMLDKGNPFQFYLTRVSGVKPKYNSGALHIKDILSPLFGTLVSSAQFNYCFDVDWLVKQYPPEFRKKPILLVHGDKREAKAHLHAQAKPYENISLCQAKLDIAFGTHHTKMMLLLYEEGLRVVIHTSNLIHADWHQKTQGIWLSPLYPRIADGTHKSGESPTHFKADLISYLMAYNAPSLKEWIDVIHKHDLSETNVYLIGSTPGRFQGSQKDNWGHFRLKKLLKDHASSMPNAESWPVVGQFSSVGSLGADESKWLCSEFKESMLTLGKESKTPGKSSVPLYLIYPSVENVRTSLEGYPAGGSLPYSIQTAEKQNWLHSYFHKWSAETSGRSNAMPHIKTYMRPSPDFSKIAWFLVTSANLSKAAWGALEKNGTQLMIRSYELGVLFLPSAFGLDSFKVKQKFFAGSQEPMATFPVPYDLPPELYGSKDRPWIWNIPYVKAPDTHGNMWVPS
Chain of TDP1 (wild type) (Q9NUW8 whole entry): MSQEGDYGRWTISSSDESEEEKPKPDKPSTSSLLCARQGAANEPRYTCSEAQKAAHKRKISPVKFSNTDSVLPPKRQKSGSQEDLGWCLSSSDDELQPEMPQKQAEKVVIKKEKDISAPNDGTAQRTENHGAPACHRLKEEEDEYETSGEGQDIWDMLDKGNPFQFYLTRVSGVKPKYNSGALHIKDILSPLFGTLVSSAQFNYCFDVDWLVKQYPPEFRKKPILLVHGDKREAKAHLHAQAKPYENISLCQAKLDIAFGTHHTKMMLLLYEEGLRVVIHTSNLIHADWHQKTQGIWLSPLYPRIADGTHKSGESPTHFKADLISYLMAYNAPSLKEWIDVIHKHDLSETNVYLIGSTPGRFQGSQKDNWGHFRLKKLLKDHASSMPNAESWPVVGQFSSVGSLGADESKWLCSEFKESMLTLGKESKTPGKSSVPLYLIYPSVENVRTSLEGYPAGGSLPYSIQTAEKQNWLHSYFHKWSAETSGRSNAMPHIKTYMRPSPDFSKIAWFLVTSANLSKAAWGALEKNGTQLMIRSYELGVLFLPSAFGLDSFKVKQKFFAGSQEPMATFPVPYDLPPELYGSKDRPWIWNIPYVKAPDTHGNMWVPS
T1 sequence (Q9NUW8 whole entry): as above

On to `CC(=O)c1c(O)c(C)c(O)c2c1OC1=CC(=O)C(=C(C)NCCCc3cc(C(C)(C)C)c(O)c(C(C)(C)C)c3)C(=O)C12C` (stereo not drawn) [OL9-116], for which the IC50 was determined as 1400 ± 400 nM in series [1] and 3800 ± 800 nM against Δ148TDP1.

B1: 5'-FAM 16-mer oligonucleotide (ssDNA)
DNA: AACGTCAGGGTCTTCC
As for B1, in the series with TDP1 (wild type), the binding result was “binds”.
